PMC4754331, “Programming of metabolic effects in C57BL/6JxFVB mice by in utero and lactational exposure to perfluorooctanoic acid” (Archives of Toxicology, 2015)
Several values for one entry are separate records, joined by “and”; a condition that tells them apart may be missing. Identical values can stand only once.

What was measured:
[1] = system: C57BL/6JxFVB hybrid mice; experiment: Insulin tolerance test; format: in vivo; conditions: males and females; 300 µg/kg vs control; 20 weeks; data not shown
Protocol: (§1) One week later, at 20 weeks of age, an insulin tolerance test (ITT) was performed in the same animals as used for the GTT. Mice were not fasted to avoid low glucose baseline levels which, after an insulin injection, could lead to hypoglycemia. At the start of the experiment, a baseline blood sample was taken (0 min). […] The experiment was performed over two morning sessions, with 1.75 h between the first and last tested animal in each session, and animals were treated in a random order. At the age of 22–25 weeks, control and 300 µg/kg bw/d animals were used for a spontaneous locomotor activity test. After an acclimatization period of minimal 6 h, activity of the mice was continuously registered on four parallel platforms for 36 h (males) or 60 h (females), starting at the beginning of the dark phase (6.30 PM) of the first day.

[2] = system: ucp1; experiment: ucp1 gene expression in brown adipose tissue (qPCR); format: in vivo, mice; conditions: males and females; 300 and 3000 µg/kg vs control; data not shown
Protocol: (§2) Some measurements included only control and one or two dose groups and could therefore not be analyzed as dose–responses. GTT was therefore evaluated by repeated-measures or nested (to account for litter covariance) two-way ANOVAs (Graphpad Prism 5.0, R) to detect differences at the different time points and between the areas under the curve (AUC). Activity measurement, ucp1 expression, WAT adipocyte size and the proxy for cell number were also tested with a nested ANOVA (R). Differences in distribution of BAT histopathology scores between experimental groups were tested for statistical significance in a two-tailed Fisher’s exact test.

[3] = system: C57BL/6JxFVB hybrid mice; experiment: Glucose tolerance test; format: in vivo; conditions: males and females; 300 µg/kg vs control; 19 weeks; data not shown
Protocol: as §1
as §2, with “Differences in distribution of BAT histopathology scores between experimental groups were tested for statistical significance in a two-tailed Fisher’s exact test.” left out

[4] = ref EFSA [2012]; EFSA [2008]; cited from earlier work
[5] = system: rodents; set-up: method as in EFSA [2008]; conditions: basis of the TDI; ref EFSA [2008]; cited from earlier work
[6] = system: C57BL/6JxFVB hybrid mice; experiment: White adipose tissue adipocyte size and number (perirenal fat pad); format: in vivo; conditions: for White adipose tissue cell number: data not shown; for White adipose tissue adipocyte cell size: perirenal fat pad, 300 and 3000 combined
Protocol: as §2

[7] = system: C57BL/6JxFVB hybrid mice; experiment: Histopathology of brown adipose tissue; format: in vivo
Protocol: as §2

[8] = system: C57BL/6JxFVB hybrid mice; experiment: Serum lipids and glucose; conditions: for Emax: Mus musculus
[9] = system: C57BL/6JxFVB hybrid mice; experiment: Body size, organ and fat pad weights at necropsy; conditions: for Emax: Mus musculus
[10] = Tolerable daily intake and human dietary exposure; set-up: species or system humans
[11] = females, 300 and 3000 combined, p = 0.097 vs control
[12] = males, 300 and 3000 combined, p < 0.05 vs control

**Q.** Which “Glucose homeostasis: ITT” value [1] does the source give for O=C(O)C(F)(F)C(F)(F)C(F)(F)C(F)(F)C(F)(F)C(F)(F)C(F)(F)F [PFOA, Perfluorooctanoic acid] here?
**A.** did not show an effect

**Q.** And the “ucp1 expression in brown adipose tissue” value [2]?
**A.** did not show an effect

**Q.** And the “Glucose homeostasis: GTT” value [3]?
**A.** did not show an effect

**Q.** And the “Tolerable daily intake (TDI)” value [4]?
**A.** 1.5 µg/kg bw/d

**Q.** What about the “BMDL10 for liver effects in rodents” value [5] of the same molecule?
**A.** 300 µg/kg bw/d

**Q.** What about the “White adipose tissue cell number” value ([6]; females) of the same molecule?
**A.** did not differ

**Q.** And the “White adipose tissue adipocyte cell size” value ([6]; females, p < 0.05)?
**A.** significantly decreased

**Q.** What about the “White adipose tissue cell number” value ([6]; males) of the same molecule?
**A.** no differences

**Q.** What about the “White adipose tissue adipocyte cell size” value ([6]; males) of the same molecule?
**A.** no differences

**Q.** And the “Brown adipose tissue (interscapular fat pad) histopathology” value ([7]; females vs control females, p = 0.097)?
**A.** trend for lipid depletion

**Q.** And the “Brown adipose tissue lipid accumulation: count of individuals with Grade 3” value [7, 11]?
**A.** 4

**Q.** What about the “Brown adipose tissue lipid accumulation: count of individuals with Grades 1, 2” value [7, 11] of the same molecule?
**A.** 14

**Q.** What about the “Brown adipose tissue (interscapular fat pad) histopathology” value ([7]; males vs control males) of the same molecule?
**A.** significant lipid accumulation

**Q.** What about the “Brown adipose tissue lipid accumulation: count of individuals with Grades 1, 2, 3” value [7, 12] of the same molecule?
**A.** 4

**Q.** And the “Brown adipose tissue lipid accumulation: count of individuals with Grades 4, 5, 6” value [7, 12]?
**A.** 13

**Q.** And the “Serum triglycerides: BMDU/BMDL” value ([8]; F1 females)?
**A.** 100

**Q.** What about the “Serum cholesterol: BMDL” value ([8]; F1 females, CES 5 %) of the same molecule?
**A.** 402 µg/kg bw/d

**Q.** And the “Serum cholesterol: BMDU” value ([8]; F1 females, CES 5 %)?
**A.** 1284 µg/kg bw/d

**Q.** And the “Serum triglycerides: BMDL” value ([8]; F1 females, CES 5 %)?
**A.** 6.2 µg/kg bw/d

**Q.** And the “Serum triglycerides: BMDU” value ([8]; F1 females, CES 5 %)?
**A.** 623 µg/kg bw/d

**Q.** And the Emax ([8]; read-out: Serum cholesterol: max effect size)?
**A.** -20%

**Q.** And the Emax ([8]; read-out: Serum triglycerides: max effect size)?
**A.** -27%

**Q.** And the “Other relevant effects of PFOA” value ([9]; C57BL/6JxFVB, 3-10-30-100-300-1000-3000 µg/kg bw/d, diet, 2w pre-mating-PND21, this study)?
**A.** F: ↓ fat pad weights; ↓ serum cholesterol; ↓ serum triglycerides

**Q.** What about the “Perirenal fat pad weight: BMDL corrected for measured levels of PFOA in the feed (15–30 % lower than nominal)” value ([9]; F1 females) of the same molecule?
**A.** 46–55 µg/kg bw/d and 46 µg/kg bw/d

**Q.** What about the “Femur length: BMDL” value ([9]; F1 females, CES 5 %) of the same molecule?
**A.** 2423 µg/kg bw/d

**Q.** And the “Femur length: BMDU” value ([9]; F1 females, CES 5 %)?
**A.** 6999 µg/kg bw/d

**Q.** And the “Femur weight: BMDL” value ([9]; F1 females, CES 5 %)?
**A.** 989 µg/kg bw/d

**Q.** And the “Femur weight: BMDU” value ([9]; F1 females, CES 5 %)?
**A.** 5060 µg/kg bw/d

**Q.** And the “Perirenal fat pad weight: BMDL” value ([9]; F1 females, CES 5 %)?
**A.** 65 µg/kg bw/d

**Q.** And the “Perirenal fat pad weight: BMDU” value ([9]; F1 females, CES 5 %)?
**A.** 362 µg/kg bw/d

**Q.** What about the “Quadriceps femoris muscle weight: BMDL” value ([9]; F1 females, CES 5 %) of the same molecule?
**A.** 432 µg/kg bw/d

**Q.** And the “Quadriceps femoris muscle weight: BMDU” value ([9]; F1 females, CES 5 %)?
**A.** 1356 µg/kg bw/d

**Q.** And the Emax ([9]; read-out: Femur length: max effect size, F1 females)?
**A.** -4.2%

**Q.** And the Emax ([9]; read-out: Femur weight: max effect size, F1 females)?
**A.** -8.6%

**Q.** What about the Emax ([9]; read-out: Liver weight: max effect size, F1 males) of the same molecule?
**A.** 16%

**Q.** And the Emax ([9]; read-out: Perigonadal fat pad weight: max effect size, F1 females)?
**A.** -56%

**Q.** And the Emax ([9]; read-out: Perirenal fat pad weight: max effect size, F1 females)?
**A.** -57%

**Q.** What about the Emax ([9]; read-out: Quadriceps femoris muscle weight: max effect size, F1 females) of the same molecule?
**A.** -19%

**Q.** And the Emax ([9]; read-out: Tibia length: max effect size, F1 females, exponential modeling only)?
**A.** -5%

**Q.** What about the Emax ([9]; read-out: Tibia length: max effect size, F1 males) of the same molecule?
**A.** -1.6%

**Q.** And the “Developmental BMDL of 46 µg/kg bw/d: times lower than the BMDL10 of 300 µg/kg bw/d used for the TDI” value ([9]; mouse, in vivo)?
**A.** 6.5 times

**Q.** And the “Factor by which the lowered TDI is higher than the human dietary exposure range in infants” value [10]?
**A.** 15

**Q.** What about the “TDI when applying the developmental BMDL of 46 µg/kg bw/d” value [10] of the same molecule?
**A.** 230 ng/kg bw/d
